{
  "source": "patent US20240246968A1",
  "about": "“SMALL MOLECULE INHIBITORS OF KRAS G12C MUTANT” (Merck Sharp & Dohme LLC, priority 2021, published 2024)",
  "key": {"[1]": {"tested_on": "cancer cells with the KRAS G12C mutation", "details": "cited from earlier work"}, "[2]": {"target": "biotinylated KRAS G12C protein (GMP-PNP loaded) and GST-tagged Ras binding domain of c-RAF (Homo sapiens, UniProt P01116, C118S/C51S/C80L/G12C)", "sequence (P01116 with tags, fused parts or gaps isoform P01116-2 G12C/C51S/C80L/C118S)": "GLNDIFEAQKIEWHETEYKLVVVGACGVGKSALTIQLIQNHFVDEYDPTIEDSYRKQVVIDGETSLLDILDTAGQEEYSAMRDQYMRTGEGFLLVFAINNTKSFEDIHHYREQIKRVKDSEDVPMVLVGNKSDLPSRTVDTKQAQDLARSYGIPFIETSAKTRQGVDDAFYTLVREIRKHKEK", "assay": "RAS:RAF-RBD binding assay (TR-FRET)", "type": "biochemical", "details": "30-minute incubation with KRAS G12C, then RAF-RBD 60 minute"}, "[3]": {"tested_on": "tumor-bearing mice expressing the KRAS G12C mutation", "details": "cited from earlier work"}},
  "note": "pIC50: −log10 of the molar value.",
  "data": [
    {"smiles": "C=CC(=O)N1CC(N2CCN(C(=O)CNc3cc(C4(C)CC4)c(Cl)cc3O)CC2)C1", "note": "[ARS-853]", "values": [
      {"measurement": "inhibition of KRAS activity and antiproliferative effect under EGFR activation", "setting": "[1]; KRAS G12C mutated cell line, EGFR activation", "result": "attenuated"},
      {"measurement": "induction of apoptosis", "setting": "[1]; cancer cells with the KRAS G12C mutation", "result": "inducing apoptosis"}
    ]},
    {"smiles": "Cc1c(-c2cccn3c(C(=O)c4cc(F)c(NC(=O)/C=C/CN[C@H]5CCOC5)c(F)c4)ccc23)ccc2c1CCC2O", "note": "(stereo partly drawn) [Example 132, (3S)—N-((E)-4-((2,6-difluoro-4-(8-(1-hydroxy-4-methyl-2,3-dihydro-1H-inden-5-yl)indolizine-3-carbonyl)phenyl)amino)-4-oxobut-2-en-1-yl)tetrahydrofuran-3-aminium 2,2,2-trifluoroacetate]", "values": [
      {"measurement": "pIC50", "setting": "[2]", "result": 6.52}
    ]},
    {"smiles": "C=CC(=O)N1CCN(c2ncnc3c(F)c(-c4c(O)cccc4F)c(Cl)cc23)CC1", "note": "[ARS-1620]", "values": [
      {"measurement": "antitumor action", "setting": "[3]", "result": "exerts antitumor action"}
    ]},
    {"smiles": "Cc1c2cc(C(F)(F)F)c(-c3cccn4c(C(=O)c5cc(F)c(NC(=O)/C=C/CNC6(C)COC6)c(F)c5)ccc34)c(O)c2nn1C", "note": "(single isomer, unassigned) [Example 123, (E)-N-(4-((2,6-difluoro-4-(8-(7-hydroxy-2,3-dimethyl-5-(trifluoromethyl)-2H-indazol-6-yl)indolizine-3-carbonyl)phenyl)amino)-4-oxobut-2-en-1-yl)-3-methyloxetan-3-aminium 2,2,2-trifluoroacetate]", "values": [
      {"measurement": "pIC50", "setting": "[2]", "result": 7.11}
    ]},
    {"smiles": "Cc1nc2c(Cl)c(-c3cccn4c(C(=O)c5cc(F)c(NC(=O)/C=C/CN6CCCC6C(C)(C)O)c(F)c5)ccc34)c(C(F)(F)F)cc2n1C", "note": "(stereo not shown) [Example 129, mono((E)-4-chloro-5-(3-(3,5-difluoro-4-(4-(2-(2-hydroxypropan-2-yl)pyrrolidin-1-ium-1-yl)but-2-enamido)benzoyl)indolizin-8-yl)-1,2-dimethyl-6-(trifluoromethyl)-1H-benzo[d]imidazol-3-ium) mono(2,2,2-trifluoroacetate)]", "values": [
      {"measurement": "pIC50", "setting": "[2]", "result": 7.00}
    ]},
    {"smiles": "Cc1nc2c(Cl)c(-c3cccn4c(C(=O)c5cc(F)c(NC(=O)/C=C/CN(C)C)c(F)c5)ccc34)c(C(F)(F)F)cc2n1C", "note": "[Example 128, mono((E)-4-chloro-5-(3-(4-(4-(dimethylammonio)but-2-enamido)-3,5-difluorobenzoyl)indolizin-8-yl)-1,2-dimethyl-6-(trifluoromethyl)-1H-benzo[d]imidazol-3-ium) mono(2,2,2-trifluoroacetate)]", "values": [
      {"measurement": "pIC50", "setting": "[2]", "result": 6.80}
    ]}
  ]
}
